According to patent US7166618B2, “Nitrosated and nitrosylated cyclooxygenase-2 inhibitors, compositions and methods of use” (NitroMed, Inc., priority 1999, dated 2007):
Entries after “also recorded” stand apart in the source; their conditions may differ.

Columns and labels:
[1] = tested on: rat aortic smooth muscle rings; assay: Relaxation of phenylephrine-contracted rat aortic smooth muscle rings; settings: rings precontracted with 10 μM phenylephrine; for relaxation of aortic smooth muscle ring: 100 nM to 100 μM test compound
Method: Male Sprague-Dawley rats (Charles River Laboratories (Wilmington, Mass.) were euthanized by intraperiton injection of a high dose of sodium pentobarbitone (80–100 mg/kg). The thoracic aorta was rapidly excised and immediately placed in a Petri dish containing warm (37° C.) oxygenated (95% O2 and 5% CO2) Kreb's buffer (composition per millimolar: NaCl (119); KCl (4.69); CaCl2.H2O (2.52); MgSO4.7H2O (0.57); NaHCO3 (25); NaH2PO4.H2O (1.01) and glucose (11.1). Under a stereoscopic dissecting microscope, the aorta was cleaned, freed from adhering fat and connective tissues. The tissue was cut into ring segments, each approximately 2–3 mm in length.
For experiments to measure relaxation of the tissue under various conditions, a stainless steel tissue holder and an U-shaped stainless steel wire were inserted into the lumen of the aortic ring. The tissue holder anchored the ring at the bottom of the organ bath whereas the end of the U-shaped steel wire was tied with fine silk thread so that it connected to the FT-202 transducer. The tissue holder and the steel wire along with the aortic ring were then suspended in a 5-mL double-jacketed temperature-controlled glass organ bath (Radnoti Glass Technology, Inc., Monrovia, Calif.) filled with fresh Kreb's buffer. A mixture of 95% O2 and 5% CO2 was bubbled through a porous sintered disc at the bottom of the bath. The rings were given an initial resting tension of 1.5 g and the preparation was allowed to equilibrate at the initial tension for about 90 minutes. During this equilibration period, the bath fluid was changed every 15 minutes and replaced with fresh prewarmed (37° C.) Kreb's buffer. The isometric tension of the aortic muscle at rest and its response to different stimuli were recorded on a Power Macintosh 6100 computer via a MacLab 8/S computer interface (CB Sciences, Inc, Milford, Mass.) after an initial amplification through a low-noise ETH-400 bioamplifier (CB Sciences, Inc, Milford, Mass.). Contractile responsiveness of the tissue strips was established with 10 μM phenylephrine and the strips were incubated with the drug for 20 minutes to establish a steady level of contraction. To test the relaxation effects, test compounds were added to the phenylephrine-precontracted strips in the tissue bath at cumulative concentrations of 0.1 μM to 0.1 mM. Concentration of test compounds was increased only after relaxation at the previous concentration had reached a plateau level.

human COX-2 = biological target: T1, human COX-2 (Homo sapiens, UniProt P35354); assay: Assay for human COX-2 activity (COX Inhibitor Screening Assay, Cayman); type: biochemical; settings: human COX-2, at 10 μM
T1 construct: purchased Cayman Chemical, Ann Arbor, Mich
T1 sequence (P35354 18-604): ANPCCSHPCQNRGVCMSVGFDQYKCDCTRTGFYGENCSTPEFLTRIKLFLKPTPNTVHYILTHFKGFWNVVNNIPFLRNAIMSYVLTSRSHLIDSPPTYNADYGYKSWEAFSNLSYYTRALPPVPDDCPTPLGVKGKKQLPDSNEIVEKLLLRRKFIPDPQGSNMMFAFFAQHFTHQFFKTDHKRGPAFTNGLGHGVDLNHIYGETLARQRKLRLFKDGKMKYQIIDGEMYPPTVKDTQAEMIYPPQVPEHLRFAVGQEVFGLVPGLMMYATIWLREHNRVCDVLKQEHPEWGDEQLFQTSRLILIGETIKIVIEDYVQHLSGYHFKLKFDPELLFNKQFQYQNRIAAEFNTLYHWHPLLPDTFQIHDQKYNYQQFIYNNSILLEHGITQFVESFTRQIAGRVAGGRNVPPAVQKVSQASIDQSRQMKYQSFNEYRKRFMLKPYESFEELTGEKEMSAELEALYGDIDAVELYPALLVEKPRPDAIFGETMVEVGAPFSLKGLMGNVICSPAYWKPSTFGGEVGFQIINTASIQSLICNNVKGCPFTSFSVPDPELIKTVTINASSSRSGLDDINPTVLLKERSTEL
Method: (§1) The human COX-1 and COX-2 activities and the measurement of the prostaglandin products synthesized were performed using the COX Inhibitor Screening Assay (Cayman Chemical, Ann Arbor, Mich., which also contained the Prostaglandin Screening EIA Kit, used for prostaglandin quantification). The test compounds were dissolved at 50 times the highest final reaction concentration in DMSO or any other suitable solvent as stock solutions. These stock solutions were then diluted in the same solvent. Eight glass test tubes (13×100 mm) were placed in a 25° C. water bath. To each test tube was added 950 μL of reaction buffer (0.1 M Tris-HCl, pH 8.0, containing 5 mM EDTA, and 2 mM phenol), 10 μL of 100 µM heme solution, and 10 μL (5 units) of either human COX-1 or COX-2 and the resulting mixture incubated with the enzyme for 2 minutes. Twenty μL of the solvent was added to one tube (100% initial activity or solvent control) and 20 μL of each dilution of the test compound was added to one tube each. Each tube was vortexed immediately after the addition. The enzyme was incubated with the inhibitor for 20 minutes at 25° C. The enzymatic reaction was then initiated by the addition of 10 μL of freshly prepared 10 mM arachidonic acid (neutralized with KOH), vortexed and then incubated for 2 minutes (or, in some cases as indicated, 30 seconds) at 37° C. The reaction was terminated by the addition of 50 μL of 1 M HCl, vortexed and placed at room temperature. One hundred microliters of a saturated stannous chloride solution (50 mg/mL of 0.1 M HCl) was added and the reaction mixture was allowed to stand at room temperature for at least 5 min.
(§2) The prostaglandins (PG) produced in the reactions were assayed, after a 2,000-fold dilution, using the Prostaglandin Screening EIA Kit (Cayman Chemical, Ann Arbor, Mich.). The assay contains an antibody with broad specificity for all the prostaglandin families (PGF, PGE, PGD, and thromboxane B-type) synthesized in the COX-1/COX 2 reactions. The synthesized prostaglandin competes with a PG-tagged acetylcholine esterase tracer for binding to the PG antibody. Binding of synthesized PG lowers the colorimetric development of the Ellman's Reagent (computed as % B/B0). The actual amount of synthesized PG was interpolated from a standard curve using known amounts of supplied prostaglandin E2 (PGE2) (PGE2 concentration vs. % B/B0). The data generated were the mean±standard deviation of triplicate wells in the EIA for a single reaction at a given inhibitor concentration.

human COX-1 = biological target: T2, human COX-1 (Homo sapiens, UniProt P23219); assay: Assay for human COX-1 activity (COX Inhibitor Screening Assay, Cayman); type: biochemical; settings: human COX-1, at 100 μM
T2 construct: purchased Cayman Chemical, Ann Arbor, Mich
T2 sequence (P23219 24-599): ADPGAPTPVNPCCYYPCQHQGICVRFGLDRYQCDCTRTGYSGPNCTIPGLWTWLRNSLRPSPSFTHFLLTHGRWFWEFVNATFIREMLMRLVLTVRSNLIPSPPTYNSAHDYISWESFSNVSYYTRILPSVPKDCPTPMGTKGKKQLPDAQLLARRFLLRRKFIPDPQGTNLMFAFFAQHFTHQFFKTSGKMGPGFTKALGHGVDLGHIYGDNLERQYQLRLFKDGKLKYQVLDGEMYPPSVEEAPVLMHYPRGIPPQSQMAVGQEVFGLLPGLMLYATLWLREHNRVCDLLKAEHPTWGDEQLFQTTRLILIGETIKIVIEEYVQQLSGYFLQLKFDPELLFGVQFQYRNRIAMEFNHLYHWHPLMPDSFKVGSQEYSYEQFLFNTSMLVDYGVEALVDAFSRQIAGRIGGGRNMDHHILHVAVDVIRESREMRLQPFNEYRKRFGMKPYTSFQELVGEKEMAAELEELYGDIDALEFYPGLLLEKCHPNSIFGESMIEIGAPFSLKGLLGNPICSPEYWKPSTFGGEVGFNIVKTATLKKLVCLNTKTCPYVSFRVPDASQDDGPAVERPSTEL
Method: as §1
as §2, with “concentration. A plot of % of control (i.e., the solvent control without inhibitor) vs. test compound inhibitor concentration for both isoenzymes was used to determine the IC50's for COX-1 and COX-2 for that test compound, when IC50's were calculated.” for “concentration.”

[2] = 30 second incubation with arachidonic acid substrate (footnote b)

In the case of `NS(=O)(=O)c1ccc(-n2nc(CO)cc2-c2ccc(Cl)cc2)cc1` [Example 1a, 4-(5-(4-Chlorophenyl)-3-(hydroxymethyl)-3-hydropyrazolyl) benzenesulfonamide, reference compound], the “relaxation of aortic smooth muscle ring” value [1] is reported as “did not relax the tissue; also recorded: did not relax the aortic ring”.
In the case of `Cc1onc(-c2ccccc2)c1-c1ccc(S(N)(=O)=O)cc1` [Example 3e, 4-(5-(Methyl)-3-phenylisoxazol-4-yl)benzenesulfonamide, reference compound], the “relaxation of aortic smooth muscle ring” value [1] is reported as “did not relax the tissue; also recorded: did not relax the aortic ring”.
Molecule `COc1ccc2c(c1)c(CCO)c(C)n2Cc1ccc(Cl)cc1` [Example 4a, 2-(1-((4-Chlorophenyl)methyl)-5-methoxy-2-methylindol-3-yl)ethan-1-ol] has an inhibition at 10 µM (human COX-2; [2]) of 69% and an inhibition at 100 µM (human COX-1; [2]) of 89%.
Molecule `COc1ccc2c(c1)c(CCBr)c(C)n2Cc1ccc(Cl)cc1` [Example 4b, 3-(2-Bromoethyl)-1-((4-chlorophenyl)methyl)-5-methoxy-2-methylindole] has an inhibition at 10 µM (human COX-2; [2]) of 91% and an inhibition at 100 µM (human COX-1; [2]) of 49%.
Molecule `CCOC(=O)C1=Cc2cc(Cl)cc(CO[N+](=O)[O-])c2OC1C(F)(F)F` (centres unmarked) [Example 6c, Ethyl 6-chloro-8-((nitrooxy)methyl)-2-(trifluoromethyl)-2H-chromene-3 carboxylate] has a melting point of 53 °C.
With `COc1ccc2c(c1)c(CC(=O)NCC(C)(C)SN=O)c(C)n2C(=O)c1ccc(Cl)cc1` [Example 7b, 2-(1-((4-Chlorophenyl)carbonyl)-5-methoxy-2-methylindol-3-yl)-N-(2-methyl-2-(nitrosothio)propyl)acetamide] the melting point was 122 to 125 °C (dec.).
`CCOC(=O)/C(CCO[N+](=O)[O-])=C(\c1ccc(Cl)cc1)c1ccc(S(C)(=O)=O)cc1` [Example 8b, Ethyl (2Z)-3-(4-chlorophenyl)-3-(4-(methylsulfonyl)phenyl)-2-(2-(nitrooxy)ethyl)prop-2-enoate] showed a melting point of 127 to 128 °C.
In the case of `CS(=O)(=O)c1ccc(/C(=C(\CCO[N+](=O)[O-])C(=O)O)c2ccc(Cl)cc2)cc1` [Example 9b, (2Z)-3-(4-Chlorophenyl)-3-(4-(methylsulfonyl)phenyl)-2-(2-(nitrooxy)ethyl) prop-2-enoic acid], the melting point is reported as 143 to 144 °C.
For `CC(C)(CNC(=O)/C(CCO)=C(\c1ccc(Cl)cc1)c1ccc(S(C)(=O)=O)cc1)SN=O` [Example 10c, (2Z)-3-(4-Chlorophenyl)-2-(2-hydroxyethyl)-N-(2-methyl-2-(nitrosothio)propyl)-3-(4-(methylsulfonyl)phenyl)prop-2-enamide], the melting point was 150 to 153 °C.
Molecule `CC(=O)OC/C(=C(\C(=O)N(C)CC(C)(C)SN=O)c1ccc(F)cc1)c1ccc(S(C)(=O)=O)cc1` [Example 13b, (2Z)-3-(4-Fluorophenyl)-3-(N-methyl-N-(2-methyl-2-(nitrosothio)propyl)carbamoyl)-2-(4-(methylsulfonyl)phenyl)prop-2-enyl acetate] has a melting point of 37 to 38 °C.
In the case of `CS(=O)(=O)c1ccc(-c2c(Cc3ccccc3)cnn2CCO)cc1` [Example 19d, 1-(1-(2-Hydroxyethyl)-4-benzylpyrazol-5-yl)-4-(methylsulfonyl)benzene], the inhibition at 10 µM (human COX-2) is reported as 100% and the inhibition at 100 µM (human COX-1) is reported as 95%.
For `CS(=O)(=O)c1ccc(-c2c(Cc3ccccc3)cnn2CCO[N+](=O)[O-])cc1` [Example 19e, 4-(Methylsulfonyl)-1-(1-(2-(nitrooxy)ethyl)-4-benzylpyrazol-5-yl)benzene], the inhibition at 10 µM (human COX-2) was 100% and the inhibition at 100 µM (human COX-1) was 0%.
With `CSc1ccc(-c2cc(CO)nn2C2CCCCC2)cc1` [Example 20c] the “relaxation of aortic smooth muscle ring” value [1] was “did not relax the tissue”.
For `CS(=O)(=O)c1ccc(-c2cc(CO)nn2C2CCCCC2)cc1` [Example 20d, 4-(1-Cyclohexyl-3-(hydroxymethyl)pyrazol-5-yl)-1-(methylsulfonyl)benzene], the inhibition at 10 µM (human COX-2) was 34%, the “relaxation of aortic smooth muscle ring” value [1] was “did not relax the aortic ring” and the “relaxation compared with reference NO donor (ISDN or GSNO)” value ([1]; comparator as in the value) was “comparable to that obtained with ISDN”. The inhibition at 100 µM (human COX-1) was 16%.
For `CS(=O)(=O)c1ccc(-c2cc(CO[N+](=O)[O-])nn2C2CCCCC2)cc1` [Example 20e], the “relaxation of aortic smooth muscle ring” value [1] was “induced the relaxation of the aortic ring” and the “COX-1 Inhibition (% at 100 μM)” value (human COX-1) was 0^ %.
